Key:
Assay type in all cases: cell-based
[1] = system: E. coli DH5α; test: Antibacterial activity: MIC and growth curve against E. coli DH5α in 96-well plate; conditions: minimal inhibitory concentration against E. coli DH5α; 96-well plate, 5×10^5 CFU/mL, 37° C., judged after 8 h
Method in brief: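 Log-phase bacteria (OD600 ~0.5) resuspended in LB at 5×10^5 CFU/mL, exposed to recombinant protein at 50, 25, 12.5 μg/mL final in triplicate, 37 °C shaking at 175 rpm. OD600 read every 30 min; MIC is lowest concentration showing no growth.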

[2] = system: E. coli BL21; test: MIC against Gram-negative bacteria: E. coli BL21; conditions: for MIC (μg/mL) E. coli BL21 / MIC E. coli BL21 / MIC against E. coli BL21: 5×10^5 CFU/mL
Method in brief: (§1)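 Two-fold serial dilutions of each purified human EGF domain protein, three replicate wells per level, were combined with bacteria at a final 5×10^5 CFU/mL in LB. Cultures were shaken at 175 rpm, 37° C. The MIC was taken as the minimum concentration preventing growth.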

[3] = system: Pseudomonas aeruginosa; test: MIC against Gram-negative bacteria: Pseudomonas aeruginosa; conditions: for MIC (μg/mL) P. aeruginosa / MIC P. aeruginosa / MIC against P. aeruginosa: 5×10^5 CFU/mL
Method in brief: as §1

[4] = system: Klebsiella pneumonia; test: MIC against Gram-negative bacteria: Klebsiella pneumonia; conditions: for MIC (μg/mL) K. pneumonia / MIC K. pneumonia / MIC against K. pneumonia: 5×10^5 CFU/mL
Method in brief: as §1

[5] = system: Enterobacter cloacae; test: MIC against Gram-negative bacteria: Enterobacter cloacae; conditions: for MIC (μg/mL) E. cloacae / MIC E. cloacae / MIC against E. cloacae: 5×10^5 CFU/mL
Method in brief: as §1

[6] = system: Aeromonas hydrophila; test: MIC against Gram-negative bacteria: Aeromonas hydrophila; conditions: for MIC (μg/mL) A. hydrophila / MIC A. hydrophila / MIC against A. hydrophila: 5×10^5 CFU/mL
Method in brief: as §1

[7] = system: Citrobacter diversus; test: MIC against Gram-negative bacteria: Citrobacter diversus; conditions: for MIC (μg/mL) C. diversus / MIC C. diversus / MIC against C. diversus: 5×10^5 CFU/mL
Method in brief: as §1

[8] = system: Moraxella catarrhalis; test: MIC against Gram-negative bacteria: Moraxella catarrhalis; conditions: for MIC (μg/mL) M. catarrhalis / MIC M. catarrhalis / MIC against M. catarrhalis: 5×10^5 CFU/mL
Method in brief: as §1

[9] = system: Proteus mirabilis; test: MIC against Gram-negative bacteria: Proteus mirabilis; conditions: for MIC (μg/mL) P. mirabilis / MIC P. mirabilis / MIC against P. mirabilis: 5×10^5 CFU/mL
Method in brief: as §1

[10] = system: Proteus vulgaris; test: MIC against Gram-negative bacteria: Proteus vulgaris; conditions: for MIC (μg/mL) P. vulgaris / MIC P. vulgaris / MIC against P. vulgaris: 5×10^5 CFU/mL
Method in brief: as §1

[11] = system: Serratia marcescens; test: MIC against Gram-negative bacteria: Serratia marcescens; conditions: for MIC (μg/mL) S. marcescens / MIC S. marcescens / MIC against S. marcescens: 5×10^5 CFU/mL
Method in brief: as §1

[12] = E. coli BL21, 10 h cultivation at 37° C.
[13] = P. aeruginosa, 10 h cultivation at 37° C.
[14] = K. pneumonia, 10 h cultivation at 37° C.
[15] = E. cloacae, 10 h cultivation at 37° C.
[16] = A. hydrophila, 10 h cultivation at 37° C.
[17] = C. diversus, 10 h cultivation at 37° C.
[18] = M. catarrhalis, 10 h cultivation at 37° C.
[19] = P. mirabilis, 10 h cultivation at 37° C.
[20] = P. vulgaris, 10 h cultivation at 37° C.
[21] = S. marcescens, 10 h cultivation at 37° C.
[22] = E. coli BL21, 96-well plate, 37° C., 10 h
[23] = Pseudomonas aeruginosa, 96-well plate, 37° C., 10 h
[24] = Klebsiella pneumonia, 96-well plate, 37° C., 10 h
[25] = Enterobacter cloacae, 96-well plate, 37° C., 10 h
[26] = Aeromonas hydrophila, 96-well plate, 37° C., 10 h
[27] = Citrobacter diversus, 96-well plate, 37° C., 10 h
[28] = Moraxella catarrhalis, 96-well plate, 37° C., 10 h
[29] = Proteus mirabilis, 96-well plate, 37° C., 10 h
[30] = Proteus vulgaris, 96-well plate, 37° C., 10 h
[31] = Serratia marcescens, 96-well plate, 37° C., 10 h
[32] = 10 h cultivation at 37° C., two-fold serial dilution

PRT242 (CEPGCKFGECVGPNKCRCFPGYTGKTC; listed as Homo sapiens)
MIC [1]: 12.5 µg/mL
MIC (μg/mL) E. coli BL21 [2, 12]: 12.5 µg/mL
MIC (μg/mL) P. aeruginosa [3, 13]: 50 µg/mL
MIC (μg/mL) K. pneumonia [4, 14]: 50 µg/mL
MIC (μg/mL) E. cloacae [5, 15]: 12.5 µg/mL
MIC (μg/mL) A. hydrophila [6, 16]: 12.5 µg/mL
MIC (μg/mL) C. diversus [7, 17]: 12.5 µg/mL
MIC (μg/mL) M. catarrhalis [8, 18]: 12.5 µg/mL
MIC (μg/mL) P. mirabilis [9, 19]: 12.5 µg/mL
MIC (μg/mL) P. vulgaris [10, 20]: 12.5 µg/mL
MIC (μg/mL) S. marcescens [11, 21]: 12.5 µg/mL

PRT665 (GIDRCAAGATNVCGPGTCVNLPDGYRCVCSPGYQLHPSQAYCT; listed as Homo sapiens)
MIC [1]: 25 µg/mL
MIC E. coli BL21 ([2]; 96-well plate, 37° C., 10 h): 50 µg/mL
MIC P. aeruginosa ([3]; 96-well plate, 37° C., 10 h): 25 µg/mL
MIC K. pneumonia ([4]; 96-well plate, 37° C., 10 h): 12.5 µg/mL
MIC E. cloacae ([5]; 96-well plate, 37° C., 10 h): 25 µg/mL
MIC A. hydrophila ([6]; 96-well plate, 37° C., 10 h): 50 µg/mL
MIC C. diversus ([7]; 96-well plate, 37° C., 10 h): 25 µg/mL
MIC M. catarrhalis ([8]; 96-well plate, 37° C., 10 h): 12.5 µg/mL
MIC P. mirabilis ([9]; 96-well plate, 37° C., 10 h): 25 µg/mL
MIC P. vulgaris ([10]; 96-well plate, 37° C., 10 h): 50 µg/mL
MIC S. marcescens ([11]; 96-well plate, 37° C., 10 h): 25 µg/mL

PRT1314 (ARNPCTDGHRGGCSEHANCLSTGLNTRRCECHAGYVGDGLQCL; listed as Homo sapiens)
MIC [1]: 12.5 µg/mL
MIC against E. coli BL21 [2, 22]: 50 µg/mL
MIC against P. aeruginosa [3, 23]: 12.5 µg/mL
MIC against K. pneumonia [4, 24]: 50 µg/mL
MIC against E. cloacae [5, 25]: 12.5 µg/mL
MIC against A. hydrophila [6, 26]: 50 µg/mL
MIC against C. diversus [7, 27]: 12.5 µg/mL
MIC against M. catarrhalis [8, 28]: 12.5 µg/mL
MIC against P. mirabilis [9, 29]: 12.5 µg/mL
MIC against P. vulgaris [10, 30]: 12.5 µg/mL
MIC against S. marcescens [11, 31]: 12.5 µg/mL

PRT1055 (GADPCLYQNGGCEHICKKRLGTAWCSCREGFMKASDGKTCL; listed as Homo sapiens)
MIC [1]: 12.5 µg/mL
MIC E. coli BL21 [2, 32]: 50 µg/mL
MIC P. aeruginosa [3, 32]: 12.5 µg/mL
MIC K. pneumonia [4, 32]: 50 µg/mL
MIC E. cloacae [5, 32]: 12.5 µg/mL
MIC A. hydrophila [6, 32]: 50 µg/mL
MIC C. diversus [7, 32]: 25 µg/mL
MIC M. catarrhalis [8, 32]: 12.5 µg/mL
MIC P. mirabilis [9, 32]: 25 µg/mL
MIC P. vulgaris [10, 32]: 50 µg/mL
MIC S. marcescens [11, 32]: 12.5 µg/mL

PRT542 (CRCDIGGALGQSCEPRTGVCRC; listed as Homo sapiens)
MIC [1]: 25 µg/mL
MIC against E. coli BL21 ([2]; 96-well plate, 37° C., 10 h): 12.5 µg/mL
MIC against P. aeruginosa ([3]; 96-well plate, 37° C., 10 h): 25 µg/mL
MIC against K. pneumonia ([4]; 96-well plate, 37° C., 10 h): 50 µg/mL
MIC against E. cloacae ([5]; 96-well plate, 37° C., 10 h): 25 µg/mL
MIC against A. hydrophila ([6]; 96-well plate, 37° C., 10 h): 12.5 µg/mL
MIC against C. diversus ([7]; 96-well plate, 37° C., 10 h): 50 µg/mL
MIC against M. catarrhalis ([8]; 96-well plate, 37° C., 10 h): 12.5 µg/mL
MIC against P. mirabilis ([9]; 96-well plate, 37° C., 10 h): 50 µg/mL
MIC against P. vulgaris ([10]; 96-well plate, 37° C., 10 h): 12.5 µg/mL
MIC against S. marcescens ([11]; 96-well plate, 37° C., 10 h): 50 µg/mL

PRT947 (NIDDCARGPHCLNGGQCMDRIGGYSCRCLPGFAGERCE; listed as Homo sapiens)
MIC [1]: 12.5 µg/mL
MIC [2, 12]: 50 µg/mL
MIC [3, 13]: 12.5 µg/mL
MIC [4, 14]: 50 µg/mL
MIC [5, 15]: 12.5 µg/mL
MIC [6, 16]: 50 µg/mL
MIC [7, 17]: 25 µg/mL
MIC [8, 18]: 12.5 µg/mL
MIC [9, 19]: 25 µg/mL
MIC [10, 20]: 50 µg/mL
MIC [11, 21]: 12.5 µg/mL

PRT28 (VDACLLNPCQNQGSCRHLPGAPHGYTCDCVGGYFGHHCE; listed as Homo sapiens)
MIC [1]: 50 µg/mL
MIC (μg/mL) E. coli BL21 [2, 22]: 25 µg/mL
MIC (μg/mL) P. aeruginosa [3, 23]: 12.5 µg/mL
MIC (μg/mL) K. pneumonia [4, 24]: 50 µg/mL
MIC (μg/mL) E. cloacae [5, 25]: 25 µg/mL
MIC (μg/mL) A. hydrophila [6, 26]: 12.5 µg/mL
MIC (μg/mL) C. diversus [7, 27]: 25 µg/mL
MIC (μg/mL) M. catarrhalis [8, 28]: 50 µg/mL
MIC (μg/mL) P. mirabilis [9, 29]: 12.5 µg/mL
MIC (μg/mL) P. vulgaris [10, 30]: 25 µg/mL
MIC (μg/mL) S. marcescens [11, 31]: 50 µg/mL

— patent US9833497B2, “Human originated EGF domain proteins and use of the same” (CHENGDU SOURCEBIO LIMITED-LIABILITY COMPANY, priority 2013, dated 2017)
